Literature values as cited in patent US5536812A, “Calcitonin analogue and use thereof” (Sanwa Kagaku Kenkyusho Co., Ltd., priority 1994, dated 1996).

What was measured:
Wister male rat = details: standard manufactured by Penisula Lab. Inc., Lot No. 015405
[1] = analogue of Jap. Pat. Hei 4-59795(A) / EP-A-0 464 549

| Substance | Activity of the eel calcitonin standard (Wister male rat) | biological activities compared with native Salmon I calcitonin [1] |
| --- | --- | --- |
| eel calcitonin | 4500 IU/mg | – |
| salmon I calcitonin-Hse^33 -NH2 | – | substantially same with the native Salmon I calcitonin |
